Experimental data reported in paper PMC2063322, “Phase I trial and pharmacokinetics of the tubulin inhibitor 1069C85--a synthetic agent binding at the colchicine site designed to overcome multidrug resistance” (British Journal of Cancer, 1997).
Several values for one entry are separate records, joined by “and”; a condition that tells them apart may be missing. Equal entries are not always repeated. Where two headings read alike, the source gives them in different places.

Tests used:
[1] = system: murine tumours; details: cited from earlier work
[2] = dog, cited from earlier work
[3] = system: human tumour cell lines; details: ref Raynaud et al, 1994; cited from earlier work
[4] = system: dogs; set-up: method as in Data on file, Glaxo/Wellcome, 1990; details: 20 mg m-2; ref Data on file, Glaxo/Wellcome, 1990; cited from earlier work
[5] = Protein binding in human plasma (Amicon membrane centrifugation); details: 25 C
Description: (§1) British Joumal of Cancer (1997) 75(4), 608-613 ? […] A phase I study was performed using a single oral dose every 3 weeks, administered as a suspension reconstituted in 0.1% Tween 80 and 0.9% saline. The starting dose was 2.8 mg m-2, and dose doubling was permitted until the area under curve (AUC) was ?40% of that at the mouse LD10; thereafter, a modified Fibonacci scheme was used. […] Keywords: tubulin; multidrug resistance; neurotoxicity The tubulin-binding agent 1069C85 was developed from a struc- ture activity investigation of tubulin inhibitors binding at the colchicine site on tubulin. […] No studies were performed using human tumour xenografts. […] METHODS Formulation and drug administration A formulation was developed at the Cancer Research Campaign Formulation Unit. The drug was dispensed into vials as a dry powder and reconstituted as a fine suspension by administration of 0.9% saline containing 0.1% Tween 80 (polysorbate) with vigorous mixing. Immediately before oral administration, the drug suspension was mixed with orange juice both to disguise any possible unpleasant taste and to help ensure complete ingestion.

[6] = system: mammalian tubulin; set-up: method as in Hodgson et al 1992; Hodgson, 1994; details: at concentrations cytotoxic to P388 cells, ref Hodgson et al 1992, 1994; cited from earlier work
[7] = system: rats; set-up: method as in data on file, Cancer Research Campaign, 1993; details: 14.3 mg m-2 p.o. (one-tenth mouse LD10), daily x 5 for 4 weeks, rat; ref data on file, Cancer Research Campaign, 1993; cited from earlier work
[8] = set-up: method as in data on file Glaxo/Wellcome, 1990; details: monkey, p.o.; ref data on file Glaxo/Wellcome, 1990; cited from earlier work
[9] = Stability of 1069C85 in orange juice; details: suspension mixed with orange juice
Description: as §1

[10] = system: mice; set-up: method as in data on file, Cancer Research Campaign, 1993; details: ref data on file, Cancer Research Campaign, 1993, cited from earlier work
[11] = set-up: method as in Raynaud et al, 1994; details: mouse, estimated; ref Raynaud et al, 1994; cited from earlier work
[12] = Tumour response assessment in phase I patients; assay type: in vivo, human; details: 39 patients, 2.8-200 mg m-2
Description: as §1

[13] = cited from earlier work
[14] = Phase I pharmacokinetics: plasma 1069C85 by HPLC after single oral dose; set-up: Cmax of the patient experiencing grade 3 neurotoxicity: unit not given beside the values
Description: as §1

[15] = Phase I toxicity graded by Common Toxicity Criteria
Description: as §1

[16] = system: murine tumour cell lines with acquired resistance to natural anti-cancer products; details: acquired resistance to a variety of natural anti-cancer products, ref Hodgson et al, 1992, 1994; cited from earlier work
[17] = system: rodents; set-up: method as in data on file, Cancer Research Campaign, 1993; details: ref data on file, Cancer Research Campaign, 1993; cited from earlier work
[18] = Aqueous solubility; assay type: physicochemical
[19] = 1995, cited from earlier work
[20] = set-up: method as in van Asperen et al (1996); details: ref van Asperen et al (1996); cited from earlier work
[21] = micronized, 25 mg m-2, mean (SD), 5 patients
[22] = micronized, 35.8 mg m-2, 1 patient
[23] = micronized, 50 mg m-2, mean, 2 patients
[24] = micronized, 100 mg m-2, mean, 2 patients previously treated at 200 mg m-2 standard formulation
[25] = non-micronized, 2.8 mg m-2, mean (SD), 3 patients
[26] = non-micronized, 5.6 mg m-2, mean, 2 patients
[27] = non-micronized, 11.2 mg m-2, mean (SD), 4 patients
[28] = non-micronized, 22.4 mg m-2, mean (SD), 3 patients
[29] = non-micronized, 35.8 mg m-2, mean (SD), 4 patients
[30] = non-micronized, 50 mg m-2, mean, 2 patients
[31] = non-micronized, 100 mg m-2, mean (SD), 4 patients
[32] = non-micronized, 200 mg m-2, mean (SD), 4 patients
[33] = single patient (no. 39), 50 mg m-2 micronized
[34] = single patient, 100 mg m-2 micronized, ataxia, confusion, hallucinations, coma
[35] = single patient, 100 mg m-2 micronized, vivid dreams, disturbed sleep
[36] = single patient, 200 mg m-2 non-micronized, ataxia, confusion, disorientation
[37] = single patient, 200 mg m-2 non-micronized, visual disturbance, flashing lights
[38] = grade 3 patient, 200 mg m-2 non-micronized
[39] = grade 4 neurotoxicity patient, 100 mg m-2 micronized
[40] = patient no. 39, 50 mg m-2 micronized

Structure (SMILES): COC(=O)Nc1cn2nc(OCc3cc(OC)c(OC)c(OC)c3)ccc2n1 [1069C85]
- activity of the 20 mg kg-1 oral dose ([1]; 20 mg kg-1, oral, mouse): active dose
- anti-tumour activity in vivo ([1]; oral route, a variety of murine tumours): confirmed
- oral bioavailability ([2]; i.v. formulation dimethyl isosorbide, ref data on file, Glaxo/Wellcome 1990): 7%
- plasma elimination half-life following oral administration ([2]; p.o., ref Data on file 1990): approximately 16 h
- activity in resistant human tumour cell lines [3]: confirmed these findings
- toxicity observed in dogs [4]: fatal toxicity
- Protein binding [5]: > 99%
- inhibition of tubulin polymerization [6]: potent inhibition
- animals in which repeat dosing proved fatal [7]: seven out of ten
- plasma elimination half-life following oral administration [8]: ~2 h
- effect of orange juice on the stability [9]: no effect
- LD10, single dose intraperitoneally ([10]; mice, i.p.): 39.6 mg m-2
- LD10, single oral dose ([10]; mice, p.o.): 142.2 mg m-2
- repeat dose that proved to be fatal ([10]; mouse, i.p., daily x 5 for 4 weeks): above 3.9 mg m-2
- Protein binding [11]: 85-99%
- objective responses [12]: no objective responses
- increase of bioavailability with micronized drug ([13]; mice, preclinical, ref F I Raynaud, personal communication): two-threefold
- oral bioavailability ([13]; mouse, i.v. vehicle DMSO/saline, ref Raynaud et al, 1994): 20%
- plasma elimination half-life following oral administration ([13]; mouse, p.o., ref Raynaud et al, 1994): ~8 h
- Cmax of the patient experiencing grade 3 neurotoxicity ([14]; 200 mg m-2, non-micronized): 159
- AUC [14, 21]: 1061.8 (?269.1) gg 1-1 h-1
- Cmax [14, 21]: 58.6 (?19.5) hg 1-'
- Tmax [14, 21]: 9.8 (?3.2) h
- t1/2 [14, 21]: 38.9 (?36.9) h
- AUC [14, 22]: 1262.3 gg 1-1 h-1
- Cmax [14, 22]: 70.7 hg 1-'
- Tmax [14, 22]: 6.3 h
- t1/2 [14, 22]: 16.3 h
- AUC [14, 23]: 3786.9 gg 1-1 h-1
- Cmax [14, 23]: 198.9 hg 1-'
- Tmax [14, 23]: 10.6 h
- t1/2 [14, 23]: 24 h
- AUC [14, 24]: 15011.7 gg 1-1 h-1
- Cmax [14, 24]: 292.3 hg 1-'
- Tmax [14, 24]: 6.1 h
- t1/2 [14, 24]: 24.7 h
- time after dosing at which drug was still detectable in the cerebrospinal fluid ([14]; most severely affected patient, 100 mg m-2 micronized): 8 days and 7 days
- terminal half-life (range between patients) ([14]; non-micronized formulation, one-compartment model): 7 to 107 h
- Cmax [14, 25]: 7.3 (?3.4) hg 1-'
- Tmax [14, 25]: 10 (?7.1) h
- t1/2 [14, 25]: 29 (+22) h
- AUC ([14]; non-micronized, 2.8 mg m-2 single oral dose, mean (SD), 3 patients, AUC to 24 h): 69.9 (?30.2) gg 1-1 h-1
- AUC [14, 26]: 209.7 gg 1-1 h-1
- Cmax [14, 26]: 13 hg 1-'
- Tmax [14, 26]: 9.5 h
- t1/2 [14, 26]: 39.5 h
- AUC [14, 27]: 371.5 (?178.7) gg 1-1 h-1
- Cmax [14, 27]: 21.7 (?11.3) hg 1-'
- Tmax [14, 27]: 5.3 (?1.2) h
- t1/2 [14, 27]: 23.2 (?6.9) h
- AUC [14, 28]: 476.4 (?206.8) gg 1-1 h-1
- Cmax [14, 28]: 25.9 (?11.4) hg 1-'
- Tmax [14, 28]: 7.6 (?1.9) h
- t1/2 [14, 28]: 35.7 (?15.1) h
- AUC [14, 29]: 507.5 (?153.6) gg 1-1 h-1
- Cmax [14, 29]: 33 (?13.9) hg 1-'
- Tmax [14, 29]: 7.8 (?3.4) h
- t1/2 [14, 29]: 22.9 (?19.5) h
- AUC [14, 30]: 423.3 gg 1-1 h-1
- Cmax [14, 30]: 22 hg 1-'
- Tmax [14, 30]: 7.2 h
- t1/2 [14, 30]: 73.5 h
- AUC [14, 31]: 844.7 (?314.7) gg 1-1 h-1
- Cmax [14, 31]: 48.5 (?25) hg 1-'
- Tmax [14, 31]: 4.8 (?1.1) h
- t1/2 [14, 31]: 23 (?4.3) h
- AUC [14, 32]: 3011 (?1771.4) gg 1-1 h-1
- Cmax [14, 32]: 99.8 (?36.9) hg 1-'
- Tmax [14, 32]: 8.8 (?1.9) h
- t1/2 [14, 32]: 18.2 (?3) h
- terminal elimination half-life (range) ([14]; original formulation, single oral dose every 3 weeks, patients): 18 to 73.5 h
- AUC [14, 33]: 16.4 ItM h
- Cmax [14, 33]: 327 .g l-i
- AUC [14, 34]: 23.4 ItM h
- Cmax [14, 34]: 495 .g l-i
- AUC [14, 35]: 53.9 ItM h
- Cmax [14, 35]: 90 .g l-i
- AUC [14, 36]: 15.2 ItM h
- Cmax [14, 36]: 159 .g l-i
- AUC [14, 37]: 5.1 ItM h
- Cmax [14, 37]: 100 .g l-i
- incidence of central neurotoxicity (mainly mild sedation) ([15]; 200 mg m-2, non-micronized): four of five
- duration of neurotoxic symptoms [15, 38]: 7 days
- onset of neurotoxic symptoms after dosing [15, 38]: 48 h
- alopecia grade [15, 39]: 2
- neutropenia grade [15, 39]: 3
- onset of neurotoxicity ([15]; grade 4 patient, 100 mg m-2 micronized): approximately 48 h
- severe central neurotoxicity, maximum grade ([15]; micronized formulation, doses of 50-100 mg m-2): ≤ 4
- toxicities observed ([15]; micronized, 25 or 35.8 mg m-2): No significant toxicities
- nausea and vomiting grade (only toxicities observed) ([15]; non-micronized, 2.8 to 22.4 mg m-2): 1-2
- antiproliferative toxicities ([15]; original formulation, 2.8-200 mg m-2): no antiproliferative toxicities
- day of death attributed to 1069C85 [15, 40]: 8 days
- thrombocytopenia grade [15, 40]: 3
- vomiting and diarrhoea grade [15, 40]: 2
- neutropenia grade ([15]; patient no. 39, 50 mg m-2 micronized, onset day 6): 4
- Cmax at which severe neurotoxicity was not observed ([15]; patients): < 100 ng ml'
- peak plasma concentration above which CNS neurotoxicity was severe ([15]; patients): above 100 tg 1-'
- Neurotoxicity (CTC grade) ([15]; single patient (no. 39), 50 mg m-2 micronized, agitation, confusion and visual hallucinations, days 2-6): 3
- Neurotoxicity (CTC grade) ([15]; single patient, 100 mg m-2 micronized, ataxia, confusion, hallucinations, coma, days 2-7): 4
- Neurotoxicity (CTC grade) ([15]; single patient, 100 mg m-2 micronized, vivid dreams, disturbed sleep, days 3-6): 1
- Neurotoxicity (CTC grade) ([15]; single patient, 200 mg m-2 non-micronized, ataxia, confusion, disorientation, days 2-6): 3
- Neurotoxicity (CTC grade) [15, 37]: 1
- activity against resistant murine tumour cell lines [16]: retained activity
- dose limiting toxicities [17]: myelosuppression and gastrointestinal damage
- aqueous solubility [18]: extremely poor

Structure (SMILES): CCOC(=O)Nc1cc2c(c(N)n1)N=C(c1ccccc1)[C@H](C)N2 [CI-980]
- dose limiting toxicity ([19]; 24 h-infusion schedule, ataxia, confusion and coma, ref Sklarin et al): dose limiting central neurotoxicity
- dose limiting toxicity ([19]; 72 h-infusion, ref Rowinsky et al): dose limiting myelosuppression

Structure (SMILES): CC[C@]1(O)C[C@@H]2CN(CCc3c([nH]c4ccccc34)[C@@](C(=O)OC)(c3cc4c(cc3OC)N(C)[C@H]3[C@@](O)(C(=O)OC)[C@H](OC(C)=O)[C@]5(CC)C=CCN6CC[C@]43[C@@H]65)C2)C1 [vinblastine]
- accumulation of drug in the brains of P-glycoprotein-deficient versus wild-type mice [20]: substantially greater accumulation
